Targets include Histamine H1 receptor (Homo sapiens, UniProt P35367); Melanocortin receptor 4 (Homo sapiens, UniProt P32245); Mu-type opioid receptor (Homo sapiens, UniProt P35372).
A further assay addresses T1, Adenosine receptor A1 (Homo sapiens, UniProt P30542).
T1 sequence (P30542 whole entry): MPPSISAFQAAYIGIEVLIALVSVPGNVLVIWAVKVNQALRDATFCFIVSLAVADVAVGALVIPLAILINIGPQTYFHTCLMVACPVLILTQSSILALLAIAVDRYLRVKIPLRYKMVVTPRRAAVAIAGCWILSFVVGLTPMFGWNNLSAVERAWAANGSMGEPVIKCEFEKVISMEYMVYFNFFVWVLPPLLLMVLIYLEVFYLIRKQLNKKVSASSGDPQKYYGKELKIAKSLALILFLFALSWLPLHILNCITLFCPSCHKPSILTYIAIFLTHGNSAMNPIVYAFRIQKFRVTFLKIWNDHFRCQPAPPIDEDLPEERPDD

The target of assay [1] is T2, Alpha-1A adrenergic receptor (Homo sapiens, UniProt P35348).
T2 sequence (P35348 whole entry): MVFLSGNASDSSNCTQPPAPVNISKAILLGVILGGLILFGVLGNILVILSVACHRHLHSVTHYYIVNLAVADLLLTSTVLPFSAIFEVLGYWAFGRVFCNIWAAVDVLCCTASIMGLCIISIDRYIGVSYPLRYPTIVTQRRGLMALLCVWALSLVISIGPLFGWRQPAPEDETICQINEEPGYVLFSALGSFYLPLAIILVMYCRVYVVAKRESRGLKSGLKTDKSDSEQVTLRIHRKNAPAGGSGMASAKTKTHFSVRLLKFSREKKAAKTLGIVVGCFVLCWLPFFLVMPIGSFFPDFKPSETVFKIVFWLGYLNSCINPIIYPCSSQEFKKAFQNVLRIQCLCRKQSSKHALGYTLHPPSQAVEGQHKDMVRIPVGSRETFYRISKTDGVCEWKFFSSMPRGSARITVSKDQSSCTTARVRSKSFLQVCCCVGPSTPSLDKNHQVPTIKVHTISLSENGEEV
The assay is classed as functional, cell-based.

Assay [2] deals with T3, Alpha-2A adrenergic receptor (Homo sapiens, UniProt P08913).
T3 sequence (P08913 whole entry): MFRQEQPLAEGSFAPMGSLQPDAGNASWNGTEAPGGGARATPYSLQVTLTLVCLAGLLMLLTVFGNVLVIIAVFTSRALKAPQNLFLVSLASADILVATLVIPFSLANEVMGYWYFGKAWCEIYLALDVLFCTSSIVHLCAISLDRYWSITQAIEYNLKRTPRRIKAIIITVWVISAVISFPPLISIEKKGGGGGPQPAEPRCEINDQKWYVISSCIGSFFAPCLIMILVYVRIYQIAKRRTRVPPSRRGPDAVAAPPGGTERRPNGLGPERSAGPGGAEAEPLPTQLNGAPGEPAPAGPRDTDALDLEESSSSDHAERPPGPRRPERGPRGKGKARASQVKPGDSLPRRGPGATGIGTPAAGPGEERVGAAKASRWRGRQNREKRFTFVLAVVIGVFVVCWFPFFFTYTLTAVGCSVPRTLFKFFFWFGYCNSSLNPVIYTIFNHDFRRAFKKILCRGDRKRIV
The assay is classed as functional, cell-based.

A further assay has as its target T4, B2 bradykinin receptor (Homo sapiens, UniProt P30411).
T4 sequence (P30411 whole entry): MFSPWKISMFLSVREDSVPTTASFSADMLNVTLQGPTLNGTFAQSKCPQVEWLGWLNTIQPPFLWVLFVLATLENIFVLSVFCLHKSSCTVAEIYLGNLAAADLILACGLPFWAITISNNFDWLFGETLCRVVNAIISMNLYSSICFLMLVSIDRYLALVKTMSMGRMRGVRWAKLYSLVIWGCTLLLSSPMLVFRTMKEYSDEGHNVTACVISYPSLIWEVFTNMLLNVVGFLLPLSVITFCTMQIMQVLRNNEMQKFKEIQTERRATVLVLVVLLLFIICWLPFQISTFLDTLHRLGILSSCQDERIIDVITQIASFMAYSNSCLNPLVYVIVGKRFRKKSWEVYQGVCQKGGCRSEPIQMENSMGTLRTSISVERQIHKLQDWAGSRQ

Assay [3] has as its target T5, Gastrin/cholecystokinin type B receptor (Homo sapiens, UniProt P32239).
T5 sequence (P32239 whole entry): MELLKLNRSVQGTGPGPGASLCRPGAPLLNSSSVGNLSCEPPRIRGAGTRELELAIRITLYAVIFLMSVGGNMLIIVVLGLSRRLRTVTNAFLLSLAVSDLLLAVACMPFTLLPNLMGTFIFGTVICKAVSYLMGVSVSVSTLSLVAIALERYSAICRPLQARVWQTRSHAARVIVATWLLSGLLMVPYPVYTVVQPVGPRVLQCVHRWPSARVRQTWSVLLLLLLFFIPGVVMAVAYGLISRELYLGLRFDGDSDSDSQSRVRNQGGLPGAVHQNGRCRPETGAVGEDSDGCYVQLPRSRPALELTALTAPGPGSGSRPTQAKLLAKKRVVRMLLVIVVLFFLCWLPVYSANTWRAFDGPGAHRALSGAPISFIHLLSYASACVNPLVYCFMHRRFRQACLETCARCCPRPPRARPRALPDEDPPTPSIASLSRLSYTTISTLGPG

In assay [4] the target is Muscarinic acetylcholine receptor M3 (Homo sapiens, UniProt P20309).
Chain of Muscarinic acetylcholine receptor M3 (P20309 whole entry): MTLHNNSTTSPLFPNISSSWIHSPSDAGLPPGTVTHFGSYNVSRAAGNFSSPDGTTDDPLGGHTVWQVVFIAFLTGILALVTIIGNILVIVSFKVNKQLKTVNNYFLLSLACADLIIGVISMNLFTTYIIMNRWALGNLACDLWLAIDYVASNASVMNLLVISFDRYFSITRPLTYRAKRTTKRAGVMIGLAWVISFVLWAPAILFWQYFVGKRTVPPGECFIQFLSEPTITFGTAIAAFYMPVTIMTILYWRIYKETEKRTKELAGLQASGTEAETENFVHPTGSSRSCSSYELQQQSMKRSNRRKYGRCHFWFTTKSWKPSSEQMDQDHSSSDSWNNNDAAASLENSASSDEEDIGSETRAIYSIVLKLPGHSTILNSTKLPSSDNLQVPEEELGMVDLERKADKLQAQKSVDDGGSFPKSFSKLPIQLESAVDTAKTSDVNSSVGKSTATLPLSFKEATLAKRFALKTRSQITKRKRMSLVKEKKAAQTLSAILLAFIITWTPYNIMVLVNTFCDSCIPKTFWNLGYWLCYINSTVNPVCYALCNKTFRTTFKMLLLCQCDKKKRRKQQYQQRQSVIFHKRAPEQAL
Assay [5] deals with T6, 5-hydroxytryptamine receptor 1A (Homo sapiens, UniProt P08908).
T6 sequence (P08908 whole entry): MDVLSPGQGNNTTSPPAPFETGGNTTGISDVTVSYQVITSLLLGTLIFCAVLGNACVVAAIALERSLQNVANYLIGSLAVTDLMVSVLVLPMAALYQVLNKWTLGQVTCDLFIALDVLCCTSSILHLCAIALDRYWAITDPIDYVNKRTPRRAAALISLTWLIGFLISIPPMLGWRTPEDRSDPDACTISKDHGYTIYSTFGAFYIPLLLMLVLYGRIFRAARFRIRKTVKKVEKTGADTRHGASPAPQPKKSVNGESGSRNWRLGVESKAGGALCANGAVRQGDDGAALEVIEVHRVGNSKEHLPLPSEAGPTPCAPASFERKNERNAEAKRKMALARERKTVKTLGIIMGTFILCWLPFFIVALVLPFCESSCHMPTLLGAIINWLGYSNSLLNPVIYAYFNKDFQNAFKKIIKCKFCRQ
The assay is classed as functional, cell-based.

In assay [6] the target is 5-hydroxytryptamine receptor 2A (Homo sapiens, UniProt P28223). The assay is classed as functional, cell-based.
Chain of 5-hydroxytryptamine receptor 2A (P28223 whole entry): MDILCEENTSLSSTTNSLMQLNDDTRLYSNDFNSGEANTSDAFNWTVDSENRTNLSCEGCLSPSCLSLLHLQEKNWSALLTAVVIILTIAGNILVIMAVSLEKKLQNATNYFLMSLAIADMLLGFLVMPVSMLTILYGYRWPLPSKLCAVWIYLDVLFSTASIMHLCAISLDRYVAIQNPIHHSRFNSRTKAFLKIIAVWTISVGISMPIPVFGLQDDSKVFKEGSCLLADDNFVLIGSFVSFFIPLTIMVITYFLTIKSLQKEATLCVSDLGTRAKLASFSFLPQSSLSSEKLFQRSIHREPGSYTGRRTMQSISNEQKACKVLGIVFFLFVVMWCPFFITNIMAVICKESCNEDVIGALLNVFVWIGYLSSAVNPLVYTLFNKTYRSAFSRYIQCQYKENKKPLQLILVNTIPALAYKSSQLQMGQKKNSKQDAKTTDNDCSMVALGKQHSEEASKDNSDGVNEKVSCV
For assay [7], the target named is 5-hydroxytryptamine receptor 2B (Homo sapiens, UniProt P41595). The assay is classed as functional, cell-based.
Chain of 5-hydroxytryptamine receptor 2B (P41595 whole entry): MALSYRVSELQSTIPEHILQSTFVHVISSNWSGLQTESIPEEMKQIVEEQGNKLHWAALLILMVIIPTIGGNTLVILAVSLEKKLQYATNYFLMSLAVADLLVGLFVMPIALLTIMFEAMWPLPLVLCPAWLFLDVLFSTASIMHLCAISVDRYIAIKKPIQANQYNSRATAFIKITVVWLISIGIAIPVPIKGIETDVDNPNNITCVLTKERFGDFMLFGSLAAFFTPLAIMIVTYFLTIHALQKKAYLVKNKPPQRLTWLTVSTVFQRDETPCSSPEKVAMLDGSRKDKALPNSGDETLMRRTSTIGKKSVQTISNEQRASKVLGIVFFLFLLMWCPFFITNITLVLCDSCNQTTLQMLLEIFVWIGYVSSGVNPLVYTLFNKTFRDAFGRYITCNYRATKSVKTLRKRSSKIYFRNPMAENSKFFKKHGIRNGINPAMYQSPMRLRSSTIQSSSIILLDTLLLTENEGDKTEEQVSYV

Where only a bound is given, the exact number is not on record here.

One may read the AC50 as the concentration giving half of the maximal activity seen. Higher therefore signals activity only at high concentration.
Note: assay procedure not described here.

Chain of Melanocortin receptor 4 (P32245 whole entry): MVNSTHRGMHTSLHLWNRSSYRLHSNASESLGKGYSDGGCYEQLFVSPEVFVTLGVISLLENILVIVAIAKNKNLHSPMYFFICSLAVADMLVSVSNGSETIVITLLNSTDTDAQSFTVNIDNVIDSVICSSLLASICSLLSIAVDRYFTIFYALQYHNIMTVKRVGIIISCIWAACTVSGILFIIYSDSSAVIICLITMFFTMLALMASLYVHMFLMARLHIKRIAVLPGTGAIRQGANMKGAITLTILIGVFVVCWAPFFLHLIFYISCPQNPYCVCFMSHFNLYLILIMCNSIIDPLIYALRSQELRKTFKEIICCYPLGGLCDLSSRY
Chain of Mu-type opioid receptor (P35372 whole entry): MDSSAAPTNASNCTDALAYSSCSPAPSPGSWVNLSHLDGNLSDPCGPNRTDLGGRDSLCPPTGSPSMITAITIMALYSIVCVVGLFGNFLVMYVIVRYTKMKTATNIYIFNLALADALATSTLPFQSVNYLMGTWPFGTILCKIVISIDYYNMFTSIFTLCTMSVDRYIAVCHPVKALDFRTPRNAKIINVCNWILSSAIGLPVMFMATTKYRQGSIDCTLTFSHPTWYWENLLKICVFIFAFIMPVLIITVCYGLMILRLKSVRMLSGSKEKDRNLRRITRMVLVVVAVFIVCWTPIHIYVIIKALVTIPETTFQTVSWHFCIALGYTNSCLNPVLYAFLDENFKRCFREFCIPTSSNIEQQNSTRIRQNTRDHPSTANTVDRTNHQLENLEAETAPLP
Chain of Histamine H1 receptor (P35367 whole entry): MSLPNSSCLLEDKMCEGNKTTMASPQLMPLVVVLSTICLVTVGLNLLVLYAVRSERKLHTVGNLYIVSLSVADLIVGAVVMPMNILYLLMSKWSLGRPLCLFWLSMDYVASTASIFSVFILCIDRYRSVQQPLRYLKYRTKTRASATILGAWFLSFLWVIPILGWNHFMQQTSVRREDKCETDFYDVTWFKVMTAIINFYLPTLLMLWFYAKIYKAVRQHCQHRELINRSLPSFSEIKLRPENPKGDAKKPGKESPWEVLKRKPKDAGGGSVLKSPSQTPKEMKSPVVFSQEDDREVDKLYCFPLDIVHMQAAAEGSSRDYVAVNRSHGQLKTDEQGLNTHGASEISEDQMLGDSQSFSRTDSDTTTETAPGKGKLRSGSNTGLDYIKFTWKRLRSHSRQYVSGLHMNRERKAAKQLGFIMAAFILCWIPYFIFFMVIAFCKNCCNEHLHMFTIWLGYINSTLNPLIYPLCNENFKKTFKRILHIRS

For the compound `CN1CCN(C(=O)OC2c3nccnc3C(=O)N2c2ccc(Cl)cn2)CC1` (stereo not drawn) [ZOPICLONE], the AC50 at Adenosine receptor A1 is greater than 30 µM; in assay [1] it was greater than 30 µM; in [2], greater than 10 µM; at B2 bradykinin receptor it was greater than 30 µM; in [3] it was greater than 30 µM; in [4] it was greater than 30 µM. For the same compound, the half-maximal activity concentration (AC50) is greater than 30 µM at Histamine H1 receptor; greater than 10 µM in assay [5]; greater than 30 µM in assay [6]; greater than 10 µM in assay [7]; greater than 30 µM on Melanocortin receptor 4; greater than 10 µM at Mu-type opioid receptor.

Consider `CC(Cc1ccccc1)NCCC(c1ccccc1)c1ccccc1` (stereo not drawn) [PRENYLAMINE], for which the AC50 is greater than 30 µM at Adenosine receptor A1; greater than 30 µM in assay [1]; greater than 10 µM in assay [2]; greater than 30 µM at B2 bradykinin receptor; greater than 30 µM in assay [3]; greater than 10 µM in assay [4]. The AC50 on Histamine H1 receptor was 7.9 µM; in [5], greater than 30 µM; in assay [6] it was greater than 30 µM; in assay [7], greater than 10 µM; on Melanocortin receptor 4 it was 6.4 µM; on Mu-type opioid receptor, 1.8 µM.

Turning to `NC(CO)C(=O)NNCc1ccc(O)c(O)c1O` (stereo not drawn) [BENSERAZIDE], the AC50 at Adenosine receptor A1 was greater than 30 µM; in assay [1] it was greater than 30 µM; in assay [2], greater than 10 µM; at B2 bradykinin receptor it was greater than 30 µM; in [3], greater than 30 µM; in assay [4] it was greater than 30 µM. For the same compound, the half-maximal activity concentration (AC50) on Histamine H1 receptor was greater than 10 µM; in assay [5], greater than 10 µM; in assay [6], greater than 30 µM; in assay [7] it was greater than 10 µM; at Melanocortin receptor 4, greater than 30 µM; on Mu-type opioid receptor, greater than 10 µM.

Consider `C1COC(NC(C2CC2)C2CC2)=N1` [RILMENIDINE], for which the concentration at half-maximal activity (AC50) on Adenosine receptor A1 is greater than 30 µM; in assay [1] it was 3.4 µM; in assay [2] it was 1.31 µM; at B2 bradykinin receptor, greater than 30 µM; in assay [3], greater than 30 µM; in assay [4] it was greater than 30 µM. In addition, the AC50 is greater than 10 µM at Histamine H1 receptor; greater than 30 µM in assay [5]; greater than 30 µM in assay [6]; greater than 10 µM in [7]; greater than 30 µM at Melanocortin receptor 4; greater than 30 µM at Mu-type opioid receptor.

Source of the values: ChEMBL document CHEMBL5291721, “A preclinical secondary pharmacology resource illuminates target-adverse drug reaction associations of marketed drugs” (Nat Commun, 2023).
